Test results published in patent US4297359A, “Anti-ulcer compositions containing certain pyridyl oxime ethers” (ACF Chemiefarma NV, priority 1978, dated 1981).
Like-named read-outs stand apart in the source and are kept apart here.

Experiments:
[1] = system: indomethacin induced gastric damage; experiment: Anti-ulcer activity: inhibition of indomethacin induced gastric damage in the rat (method of Elegbe); format: in vivo; conditions: po, 5 h; for inhibition in vivo at 100 mg/kg: read-out: % Inhibition (of gastric damage); for inhibition in vivo at 50 mg/kg: 50 mg/kg (footnote *) orally
Description: Rats were starved overnight, given indomethacin subcutaneously (15 mg/kg) and sacrificed 5 hours later. Stomachs were inflated with 0.9% saline, cut along the greater curvature, pinned out and scored for gastric damage by the following system:
Score 1-3 according to the degree of erythema and slight haemorrhage.
Score 4-6 according to the degree of mucosal erosion.
Score 7-9 according to the depth of gastric damage.
Compound or vehicle was administered orally 30 minutes prior to, and at 2 hours after dosing with indomethacin. Mean values per treatment were obtained using the above scoring system and the Mann Witney test applied for significance between such values.

gastric secretion = experiment: Effects on Gastric Secretion in the Pyloric Ligated Rat (method of Shay et al.); format: in vivo; conditions: intraduodenal, 100 mg/kg i.d., 3 hours
Excerpt: 1. Effects on Gastric Secretion in the Pyloric Ligated Rat
The method as described by Shay et al. (Gastroenterol. 26, 906 (1945)) was used. After overnight starvation the pylorus of a rat was ligated under halothane aenesthesia and the compound under test or vehicle only administered intraduodenally and the rats allowed to recover. They were sacrificed three hours later and the gastric juice removed. After measurement of the volume of secretion, its hydrogen ion concentration, [H^+ ], was determined by titration with 0.5 n NaOH to pH 7. Groups of 4-6 animals were used for each treatment and the inhibitory effect of the compound was ascertained by comparison of the mean values obtained with those from a simultaneously set up control group of animals which received vehicle only. Students `t` test was applied for significance between groups. The mean values for % inhibition obtained for a number of experiments are shown in the following Table 1, the dosage being 100 mg/kg i.d.

acetylcholine = conditions: Farmaco. Ed. Sci. 19, 668-702 (1964); cited from earlier work
androgen = conditions: J. Pharm. Sci. 58, 138-141 (1969); cited from earlier work
[2] = 100 mg/kg orally, 30 minutes prior to and 2 hours after indomethacin (15 mg/kg s.c.)
[3] = read-out: % Inhibition, Volume (of gastric secretion)
[4] = read-out: % Inhibition, [H^+ ] (hydrogen ion concentration of gastric juice)
[5] = 30 minutes prior to and 2 hours after indomethacin (15 mg/kg s.c.)

Structure (SMILES) | inhibition in vivo at 100 mg/kg [1, 2] | inhibition in vivo at 100 mg/kg (gastric secretion; [3]) | inhibition in vivo at 100 mg/kg (gastric secretion; [4]) | also measured
CO/N=C(\c1ccncc1)c1ccc(F)cc1 [Compound 8, 4-fluorophenyl 4-pyridinyl ketone, O-methyl oxime] | 100% | 76% | 11% | –
CON=C(c1ccncc1)c1ccc(C)cc1 [Compound 6, 4-methylphenyl 4-pyridinyl ketone, O-methyl oxime] | 80% | 81% | 89% | –
CON=C(c1ccncc1)c1ccc(Cl)c(Cl)c1 [Compound 10, 3,4-dichlorophenyl 4-pyridinyl ketone, O-methyl oxime] | – | – | 49% | –
CCON=C(c1ccccc1)c1ccncc1 [Compound 21, phenyl 4-pyridinyl ketone, O-ethyl oxime] | – | 77% | 24% | inhibition in vivo at 50 mg/kg [1, 5]: 100%
CON=C(c1ccncc1)c1ccc(C(F)(F)F)cc1 [Compound 18, 4-pyridinyl 4-trifluoromethylphenyl ketone, O-methyl oxime] | – | 59% | – | –
N#CCON=C(c1ccccc1)c1ccncc1 [Compound 20, Phenyl 4-pyridinyl ketone, O-cyanomethyl oxime] | – | – | – | inhibition in vivo at 100 mg/kg [1]: 96%
CO/N=C(\c1ccncc1)c1ccc(OC)cc1 [Compound 7, 4-methoxyphenyl 4-pyridinyl ketone, O-methyl oxime] | 88% | – | – | –
CON=C(c1ccncc1)c1ccc(CO)cc1 [Compound 19, 4-hydroxymethylphenyl 4-pyridinyl ketone, O-methyl oxime] | 71% | 66% | 35% | –
CON=C(Cc1ccccn1)c1ccccc1 [Compound 16, phenyl 2-pyridinylmethyl ketone, O-methyl oxime] | 72% | 46% | 25% | –
CN(C)CCON=C(c1ccccc1)c1cccnc1 [Compound 26, phenyl 3-pyridinyl ketone, O-2-N,N-dimethylaminoethyl oxime] | – | 84% | – | –
CO/N=C(\c1ccccc1)c1ccncc1 [Compound 4, phenyl 4-pyridinyl ketone, O-methyl oxime] | 77% | 82% | 50% | –
CON=C(c1ccccn1)c1cccs1 [Compound 11, 2-pyridinyl 2-thienyl ketone, O-methyl oxime] | 78% | 84% | 36% | –
CON=C(c1ccsc1)c1ccccn1 [Compound 12, 2-pyridinyl 3-thienyl ketone, O-methyl oxime] | 100% | 78% | 20% | –
CO/N=C(\c1ccncc1)c1ccc(Cl)cc1 [Compound 9, 4-chlorophenyl 4-pyridinyl ketone, O-methyl oxime] | 80% | – | – | –
CO/N=C(\c1ccccc1)c1ccccn1 [Compound 2, phenyl 2-pyridinyl ketone, O-methyl oxime] | – | 76% | 33% | inhibition in vivo at 50 mg/kg [1, 5]: 79%
CON=C(c1ccccc1)c1ccncc1 [Compound 1, Phenyl 4-pyridinyl ketone, O-methyl oxime] | – | 82% | 41% | inhibition in vivo at 50 mg/kg [1, 5]: 86%

Structure (SMILES) | inhibition in vivo at 100 mg/kg [1, 2] | inhibition in vivo at 100 mg/kg (gastric secretion; [3]) | inhibition in vivo at 100 mg/kg (gastric secretion; [4]) | also measured
C=CCON=C(c1ccccc1)c1ccncc1 [Compound 22, phenyl 4-pyridinyl ketone, O-allyl oxime] | 79% | 76% | – | –
C#CCON=C(c1ccccc1)c1ccncc1 [Compound 23, phenyl 4-pyridinyl ketone, O-propargyl oxime] | – | 81% | – | –
CN(C)CCCON=C(c1ccccc1)c1cccnc1 [Compound 27, phenyl 3-pyridinyl ketone, O-3-N,N-dimethylaminopropyl oxime] | – | 85% | – | –
CN(C)CCCON=C(c1ccccn1)c1ccco1 [Compound 31, 2-furyl 2-pyridinyl ketone, O-3-N,N-dimethylaminopropyl oxime] | 92% | 70% | 30% | –
CN(C)CCON=C(c1ccccc1)c1ccncc1 [Compound 28, phenyl 4-pyridinyl ketone, O-2-N,N-dimethylaminoethyl oxime] | 92% | 83% | 92% | –
CON=C(c1ccccn1)c1ccccn1 [Compound 17, di-2-pyridinyl ketone, O-methyl oxime] | 76% | 83% | 14% | –
CN(C)CCON=C(c1ccccc1)c1ccccn1 [Compound 24, phenyl 2-pyridinyl ketone, O-2-N,N-dimethylaminoethyl oxime] | 100% | 81% | 36% | –
CO/N=C(/c1ccccc1)c1cc[n+]([O-])cc1 [Compound 32, Phenyl 4-pyridinyl ketone, O-methyl oxime, N-oxide (Z-isomer)] | 64% | 84% | 32% | –
C[N+](C)(C)CCON=C(c1ccccc1)c1ccccn1.[I-] [phenyl 2-pyridinyl ketone, O-dimethylaminoethyl oxime methiodide] | – | – | – | acetylcholine antagonistic activity (acetylcholine): showed acetylcholine antagonistic activity
COc1ccc(C(=NOCCN(C)C)c2cccs2)cc1 [4-methoxyphenyl 2-thienyl ketone, O-dimethylaminoethyl oxime] | – | – | – | anti-androgenic activity (androgen): showed anti-androgenic activity; effective dose relative to toxic dose (androgen): the effective dose was very close to the toxic dose
CN(C)CCCON=C(c1ccccc1)c1ccncc1 [Compound 29, phenyl 4-pyridinyl ketone, O-3-N,N-dimethylaminopropyl oxime] | 65% | 72% | 45% | –
CO/N=C(\c1ccccc1)c1cccnc1 [Compound 3, phenyl 3-pyridinyl ketone, O-methyl oxime] | – | 87% | 50% | inhibition in vivo at 50 mg/kg [1, 5]: 82%
CON=C(c1ccncc1)c1cccs1 [Compound 14, 4-pyridinyl 2-thienyl ketone, O-methyl oxime] | 77% | – | – | –
CN(C)CCCON=C(c1ccccn1)c1cccs1 [Compound 30, 2-pyridinyl 2-thienyl ketone, O-3-N,N-dimethylaminopropyl oxime] | 77% | 78% | 64% | –
CN(C)CCCON=C(c1ccccc1)c1ccccn1 [Compound 25, phenyl 2-pyridinyl ketone, O-3-N,N-dimethylaminopropyl oxime] | 77% | 91% | 65% | –
CN(C)CCON=C(Cc1ccccn1)c1ccccc1 [phenyl 2-picolinyl ketone, O-dimethylaminoethyl oxime] | – | – | – | effective dose relative to toxic dose (androgen): the effective dose was very close to the toxic dose
